Patent US10668048B2, “Compounds for inhibiting bacterial growth via phosphatidylglycerol binding” (Wichita State University, priority 2016, dated 2020)

Legend:
[1] = test system: E. feucalis (29213); assay: Serial passage resistance experiment; type: cell-based; conditions: 0.5 MIC, LB, 37° C., 80-100 generations
From the text: (§1) Triplicate serial passage experiments were undertaken with E. coli (MC4100), S. aureus (33186) and E. feucalis (29213).

[2] = test system: E. coli (MC4100); assay: Serial passage resistance experiment; type: cell-based; conditions: 0.5 MIC, LB, 37° C., 80-100 generations
From the text: as §1

[3] = test system: S. aureus (33186); assay: Serial passage resistance experiment; type: cell-based; conditions: 0.5 MIC, LB, 37° C., 80-100 generations
From the text: as §1

[4] = test system: E. coli (MC4100); assay: Overnight growth study in LB broth; type: cell-based
From the text: This spectrum is identical to the spectrum of just liptin in water illustrating that the liptin is not degraded or metabolized when exposed to bacteria over long periods of time.

[5] = Carboxy-fluorescein efflux from PE/PG liposomes; type: biochemical; conditions: 2.5 μM, after 90 minutes
Protocol: Liptin 3e causes membrane leakage when it binds to PG in a membrane, as evidenced by the efflux of fluorescent carboxy-fluorescein from model lipid vesicles of 80% PE/20% PG (the approximate lipid content models E. coli's plasma membrane), shown in FIG. 19A. […] Not shown is the effect of the bee AMP melittin, which forms pores in membranes at 2.5 μM concentrations. Upon addition of melittin within a few minutes of addition the efflux is 100%.
Liptins 3f-h also cause membrane leakage when they bind to PG in a membrane, as evidenced by the efflux of fluorescent carboxy-fluorescein from model lipid vesicles of 80% PE/20% PG (the lipid content models E. coli's plasma membrane), shown in FIG. 19B. The circle bottom line data set is the control without liptin. […] Y-axis: % Efflux; X-axis: Time in minutes.
This greater efflux activity may well translate to lower MICs of these two compounds relative to liptin 3e, and may well change the liptin activity from bacteriostatic to bactericidal. […]

[6] = Carboxyfluorescein efflux from pure PG vesicles; type: biochemical; conditions: room temperature, after three hours
Protocol: Liptin/bilayer interactions were evaluated using conventional efflux measurements. These experiments make use of the self-quenching fluorescence of carboxyfluorescein. At relatively high concentrations (ca. 50 mM) the fluorescence from carboxyfluorescein is diminished by approximately 70% due to intermolecular interactions.
To perform efflux experiments vesicles were prepared by rehydrating a film of pure DPPG with a 50 mM solution of carboxyfluorescein in buffer. The solution was then extruded through a polycarbonate membrane with 200 nm pore size. […] Under these conditions, as the dye leaves the vesicles by efflux, fluorescence intensity increases. Monitoring the fluorescence intensity over time provides a measure of the rate at which dye crosses the membrane and an indication of the “leakiness” of the vesicle bilayer. Efflux can be expressed as % Efflux by the following expression:
[formula] where F0 is the fluorescence intensity corresponding to the initial sample when efflux first begins and F∞ is the intensity after efflux is complete and is determined by rupturing the vesicles by the addition of a small amount of concentrated detergent. F(t) is the fluorescence intensity measured as the efflux occurs. […]

[7] = test system: E. coli strain MC4100; assay: IPTG-induced PapD overexpression, gel electrophoresis; type: cell-based; conditions: IPTG and 5 μM
From the text: The E. coli strain MC4100 will produce the pili chaperone PapD, a periplasmic protein, when induced by IPTG. […] The left panel represents the periplasmic fraction with lanes running left to right: ladder, NR, C, R, all with no IPTG; NR+IPTG, C+IPTG, R+IPTG (negative control was porphyrin A) or in the cytosol represented in the right panel with lanes running from left to right: NR, C, R, all with no IPTG; ladder, NR+IPTG, C+IPTG, R+IPTG (negative control was porphyrin A). (NR=no liptin, C=control, R=liptin). IPTG gets into the cytoplasm most efficiently via uphil symport via the plasma membrane protein lac permease when the plasma membrane is fully polarized.

[8] = test system: E. coli, Staphylococcus aureus, Enterococcus faecalis; assay: MIC of liptin 3e, overall statement; type: cell-based; conditions: LB culture
Protocol: An E. Coli (JMR 223-MC4100) plate was grown up overnight in LB agar at 37° C. A good colony was selected and added to 5 mL LB growth media. This was incubated at 37° C. with shaking at 250 rpm until the solution reaches an OD of at least 0.5 or higher at 600 nm. A final solution was diluted 500× to an OD of 0.001, correlating to a CFU of 1×10^6. 5 ml solutions of the diluted bacterial broth were measured out. Liptins were added to make solutions of 20 μM, 15 μM, 10 μM, 5 μM, 4 μM, 3 μM, 2 μM, and 1 μM (This means adding 0.2 mL, 0.15 mL, 0.1 mL, 0.05 mL, 0.04 mL, 0.03 mL, 0.02 mL, 0.01 mL of the 500 μM solution). Cultures were allowed to incubate overnight at 37° C. with shaking at 250 rpm. The following day, cultures were analyzed to evaluate the presence or absence of bacterial growth by spectrophotometry at 600 nm (0.66 mg of liptin in 0.95 mL of water; 0.15 OD Diluted 150× to OD of 0.001).

SMILES: NCC(=O)Nc1ccccc1-c1c2nc(c(-c3ccccc3NC(=O)CN)c3ccc([nH]3)c(-c3ccccc3NC(=O)CN)c3nc(c(-c4ccccc4NC(=O)CN)c4ccc1[nH]4)C=C3)C=C2.O=C(O)C(F)(F)F.O=C(O)C(F)(F)F.O=C(O)C(F)(F)F.O=C(O)C(F)(F)F [Liptin 3e]
- MIC after 15 serial passages [1]: no different than initial MICs
- MIC after 15 serial passages [2]: no different than initial MICs
- MIC after 15 serial passages [3]: no different than initial MICs
- stability: UV/Visible spectrum of membrane-bound liptin ([4]; 12 hours in bacterial culture): no change
- time until bacterial replication completely stops ([4]; one-time addition of 10 μM, growth phase, 37° C., OD=0.2, stopped for 12 hours): 1 to 2 h
- dye leakage (efflux) [5]: 5-10%
- % Efflux of carboxyfluorescein [6]: 5%
- PapD in periplasmic space or cytosol [7]: no PapD was found
- MIC [8]: less than 2 μM
